From patent US20050020542A1, “Method of modulating sodium ion absorption in epithelial cells” (priority 2001, published 2005) come the findings set out here.

In the experiment the test system is calcium-activated Cl- channel. Description: Perforated patch whole cell recording of Cl- current. The format is cell-based, human. On the procedure:
In FIGS. 4A and 4B, the response to 10 μM INO-E2 is contrasted with the response to ATP.

As to `CCCCCCCCOC1C(OC(=O)CCC)C(OP(=O)(OCOC(=O)CC)OCOC(=O)CC)C(OP(=O)(OCOC(=O)CC)OCOC(=O)CC)C(OP(=O)(OCOC(=O)CC)OCOC(=O)CC)C1OP(=O)(OCOC(=O)CC)OCOC(=O)CC` (centres unmarked) [INO-E2, 2-O-butyryl-1-O-octyl-myo-inositol 3,4,5,6-tetrakisphosphate octakis (propionoxymethyl) ester], the “time to appearance of Cl- currents after addition” value (10 μM, CFHNE cell, perforated patch) fell in the range of 5 to 15 min. The “increase in chloride current” value (5 and 10 μM, other perforated patch recordings, data not shown) is recorded as “low to intermediate increase”.
